Reference: patent US6878689B2, “Preventives or remedies for heart failure” (Kaken Pharmaceutical Co., Ltd., priority 2000, dated 2005)
Where a SMILES comes first, the peptide text is derived from it. Where no end group is shown, it is not given here. [ ]: non-standard residue; d: D form. dTrp(2-Me) = Cc1[nH]c2ccccc2c1C[C@@H](N)C(=O)O

Test system: papillary muscle of guinea-pig
Assay: Myocardial contractility (developed tension) in isolated, electrically driven papillary muscle of guinea-pig
Conditions: for change in developed tension: isolated guinea-pig papillary muscle, 1 Hz; for tension development (positive inotropic action) vs baseline: cumulative 10, 30 and 100 μM, n=5, FIG. 1
Protocol: [Test Example 1] Myocardial Contractility Enhancing Action of Pralmorelin in the Papillary Muscle of Guinea-Pig
The direct effect of pralmorelin on myocardial contractility was evaluated using the isolated cardiac muscle of guinea-pigs according to the standard method for evaluating myocardial contractility. • 1. Materials and Experimental Method • 1) Animal Used
Male Hartley guinea-pigs (body weight, 301-350 g; Japan SLC) were purchased. The animals were accommodated to an environment at a temperature of 23±2° C. and a humidity of 55±15% under 12-hr light/dark cycles while they were allowed to eat and drink water ad libitum until they weighed 360-480 g. Each test substance was tested on a group of five animals. • 2) Reagents Used
The test substances were pralmorelin dihydrochloride (KP-102), representatives of growth hormone secretagogues such as hexarelin, ghrelin and ibutamorelin methanesulfonate (the last being hereunder referred to as MK-0677) (which were prepared by the method described in JP 6-263737 A (kokai)), as well as a recombinant human growth hormone (Sumitomo Pharmaceutical) and amrinone (Sigma) which is a known therapeutic of acute heart failure. KP-102, hexarelin and MK-0677 were dissolved in distilled water. Ghrelin was dissolved in physiological saline. Amrinone was first dissolved in dimethyl sulfoxide and then diluted with physiological saline. The growth hormone was dissolved in a dedicated solubilizer (0.3 w/v % metacresol and 3.9 w/v % D-mannitol). None of the test substance solutions should be added in an amount exceeding 1 w/v %. All reagents other than the test substances were guaranteed products of Nacalai Tesque. • 3) Preparing Specimens of the Isolated Papillary Muscle
The guinea-pigs were stunned with a blow to the back of their head; thereafter, the carotid artery was incised and the animals were exsanguinated to death. The chest was opened, the blood vessels in the upper part of the heart were cut and the heart was removed. The heart was immediately transferred into a Krebs-Henseleit (K-H) nutrient solution (NaCl, 118.0 mM; KCl, 4.7 mM; CaCl2. 2H2O, 1.0 mM; KH2PO4, 1.2 mM; MgSO4.7H2O, 1.2 mM; NaHCO3, 25.0 mM; glucose, 11.0 mM) that had been fully aerated with 95% O2-5% CO2. The heart was fixed on a rubber-lined Petri dish with needles such that its front face was seen. The ventricular wall of the upper right ventricle (toward the atrium) was excised transversely along the atrium, then excised longitudinally along the interventricular septum so that the ventricular wall was opened to expose the right ventricular papillary muscle. Subsequently, the entire surface of the left ventricle was cut open from the aorta (down) to the apex and the anterior wall of the left ventricle was opened wide, to both right and left, and fixed to expose the papillary muscle of the left ventricle. The tricupsid or mitral valve was cut off from the ventricle and the papillary muscle was cut off at the base to prepare a specimen of papillary muscle. The base of the specimen was fixed to field stimulating electrodes in an organ bath filled with 15 mL of the nutrient solution. The tendinous cord adhering to the valve was tied up with a thread and connected to an FD pickup (TB-612T, Nihon Kohden). A resting tension of 0.5 g was loaded and the papillary muscle was driven with an electric stimulator (SEN-3201, Nihon Kohden) at a frequency of 1 Hz by pulses of 20-ms duration and at a voltage intensity about 1.2 times the threshold. After an equilibration period of about 1 hr, KP-102, hexarelin and amrinone were each applied cumulatively up to amounts of 10, 30 and 100 μM. After examination of the changes in inotropic action due to the application of the test substances, 12.5 mM of CaCl2 was added and the maximum tension that was developed by each specimen was obtained. […]

Question: `CC(C)(N)C(=O)N[C@H](COCc1ccccc1)C(=O)N1CCC2(CC1)CN(S(C)(=O)=O)c1ccccc12` [MK-0677, ibutamorelin methanesulfonate] was tested. Which “change in developed tension” value (100 μM) did it give?
Answer: no changes in the developed tension

Question: How did the “tension development (positive inotropic action) vs baseline” value turn out when `Nc1cc(-c2ccncc2)c[nH]c1=O` [amrinone] was run?
Answer: increased in a concentration-dependent manner

Question: How did the “tension development (positive inotropic action) vs baseline” value turn out when `Cc1[nH]c2ccccc2c1C[C@@H](NC(=O)[C@@H](N)Cc1cnc[nH]1)C(=O)N[C@@H](C)C(=O)N[C@@H](Cc1c[nH]c2ccccc12)C(=O)N[C@H](Cc1ccccc1)C(=O)N[C@@H](CCCCN)C(N)=O` [hexarelin] (H-H[dTrp(2-Me)]AW[dF]K-NH2) was run?
Answer: very weak and by no means significant over the baseline value

Question: “ghrelin (GSSFLSPEHQRVQQRKESKKPPAKLQPR; ends and bridges not checked; UniProt Q9UBU3 24-51, looked up) [representative growth hormone secretagogue]” was tested. Which “change in developed tension” value (1 μM) did it give?
Answer: no changes in the developed tension

Question: With “recombinant human growth hormone: recombinant human growth hormone (Sumitomo Pharmaceutical)” as the compound, how does the “change in developed tension” value (0.2 IU/mL) read?
Answer: no changes in the developed tension
